Data reported in ChEMBL document CHEMBL1154635, “Mitoxantrone analogues as ligands for a stem-loop structure of tau pre-mRNA” (J Med Chem, 2009).

Key:
Nucleic Acid [1] = assay: Displacement of fluorescent pyrene-neomycin conjugate from tau stem-loop RNA; assay type: nucleic-acid assay
Nucleic Acid [2] = assay: Binding affinity to tau stem-loop RNA assessed as inhibition of RNA stem-loop unfolding; assay type: nucleic-acid assay

SMILES | EC50 (Nucleic Acid [1]) [nM] | IC50 (Nucleic Acid [2]) [nM]
Nc1ccc(NCCNCCO)c2c1C(=O)c1c(O)ccc(O)c1C2=O | 29000 | 5800
O=C1c2c(O)ccc(NCCNCCO)c2C(=O)c2c(NCCNCCO)ccc(O)c21 | 4400 | 1500
O=C1c2c(F)ccc(F)c2C(=O)c2c(NCCNCCO)ccc(NCCNCCO)c21 | 16000 | 2300
O=C1c2c(NCCNCCO)ccc(NCCNCCO)c2C(=O)c2c(NCCNCCO)ccc(NCCNCCO)c21 | 1200 | 340
Nc1ccc(O)c2c1C(=O)c1c(N)ccc(O)c1C2=O | > 100000 | > 100000
O=C1c2c(O)ccc(O)c2C(=O)c2c(NCCNCCO)ccc(NCCNCCO)c21 [MITOXANTRONE] | 890 | 460
Nc1ccc(N)c2c1C(=O)c1c(N)ccc(N)c1C2=O | > 100000 | > 100000
O=C1c2c(O)ccc(O)c2C(=O)c2c(NCCOCCO)ccc(NCCNCCO)c21 | 14000 | 5700
Nc1ccc(N)c2c1C(=O)c1c(O)ccc(O)c1C2=O | > 100000 | > 100000
NCCNCCNCCNc1ccc(NCCNCCO)c2c1C(=O)c1c(O)ccc(O)c1C2=O | 380 | 230
O=C1c2c(O)ccc(O)c2C(=O)c2c(NCCNCCO)ccc(F)c21 | 75000 | 5700
CC(C)(C)OC(=O)NCCNCCNc1ccc(NCCNCCO)c2c1C(=O)c1c(O)ccc(O)c1C2=O | 12000 | 2400
NCCNCCNc1ccc(NCCNCCN)c2c1C(=O)c1c(O)ccc(O)c1C2=O | 160 | 130
NCCNCCNc1ccc(NCCNCCO)c2c1C(=O)c1c(O)ccc(O)c1C2=O | 310 | 180
O=C1c2c(O)ccc(NCCNCCO)c2C(=O)c2c(NCCNCCO)ccc(NCCNCCO)c21 | 800 | 420
NCCNCCNCCNc1ccc(NCCNCCNCCN)c2c1C(=O)c1c(O)ccc(O)c1C2=O | 130 | 130
